This is an account of results in ChEMBL document CHEMBL5653615 (J Biol Chem, 2013).

For assay [1], the target named is T1, Ephrin type-A receptor 8 (Homo sapiens) (UniProt P29322).
T1 sequence (whole entry): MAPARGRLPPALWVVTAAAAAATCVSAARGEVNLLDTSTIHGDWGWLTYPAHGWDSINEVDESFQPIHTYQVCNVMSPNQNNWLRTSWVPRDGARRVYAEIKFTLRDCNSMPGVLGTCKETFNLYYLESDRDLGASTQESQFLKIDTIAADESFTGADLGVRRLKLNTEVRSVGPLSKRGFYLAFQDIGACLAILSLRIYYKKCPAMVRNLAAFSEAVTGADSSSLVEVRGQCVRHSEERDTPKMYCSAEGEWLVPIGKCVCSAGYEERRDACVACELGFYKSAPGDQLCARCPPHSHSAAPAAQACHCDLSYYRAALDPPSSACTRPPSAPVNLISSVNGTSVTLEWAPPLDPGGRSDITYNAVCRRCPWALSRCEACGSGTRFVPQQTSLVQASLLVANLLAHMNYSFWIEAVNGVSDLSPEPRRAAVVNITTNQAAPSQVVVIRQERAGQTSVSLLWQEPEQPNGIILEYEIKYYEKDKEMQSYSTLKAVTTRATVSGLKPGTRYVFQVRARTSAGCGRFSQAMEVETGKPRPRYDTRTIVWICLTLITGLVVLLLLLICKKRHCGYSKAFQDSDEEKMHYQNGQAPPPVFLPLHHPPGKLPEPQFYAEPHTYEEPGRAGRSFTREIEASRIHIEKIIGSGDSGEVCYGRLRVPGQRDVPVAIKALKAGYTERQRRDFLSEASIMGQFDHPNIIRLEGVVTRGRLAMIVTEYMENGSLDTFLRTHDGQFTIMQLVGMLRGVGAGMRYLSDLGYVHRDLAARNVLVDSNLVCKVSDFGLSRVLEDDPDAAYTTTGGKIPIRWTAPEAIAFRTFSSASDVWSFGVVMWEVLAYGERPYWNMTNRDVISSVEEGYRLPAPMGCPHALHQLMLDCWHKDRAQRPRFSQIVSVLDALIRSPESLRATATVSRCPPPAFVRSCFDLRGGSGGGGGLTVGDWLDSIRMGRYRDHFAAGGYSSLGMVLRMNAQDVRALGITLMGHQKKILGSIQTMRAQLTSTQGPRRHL
Description: Inhibition of human EPHA8 at 500 nM by HotSpot assay relative to control.

Assay [2] addresses T2, Muscle, skeletal receptor tyrosine-protein kinase (Homo sapiens) (UniProt O15146).
T2 sequence (whole entry): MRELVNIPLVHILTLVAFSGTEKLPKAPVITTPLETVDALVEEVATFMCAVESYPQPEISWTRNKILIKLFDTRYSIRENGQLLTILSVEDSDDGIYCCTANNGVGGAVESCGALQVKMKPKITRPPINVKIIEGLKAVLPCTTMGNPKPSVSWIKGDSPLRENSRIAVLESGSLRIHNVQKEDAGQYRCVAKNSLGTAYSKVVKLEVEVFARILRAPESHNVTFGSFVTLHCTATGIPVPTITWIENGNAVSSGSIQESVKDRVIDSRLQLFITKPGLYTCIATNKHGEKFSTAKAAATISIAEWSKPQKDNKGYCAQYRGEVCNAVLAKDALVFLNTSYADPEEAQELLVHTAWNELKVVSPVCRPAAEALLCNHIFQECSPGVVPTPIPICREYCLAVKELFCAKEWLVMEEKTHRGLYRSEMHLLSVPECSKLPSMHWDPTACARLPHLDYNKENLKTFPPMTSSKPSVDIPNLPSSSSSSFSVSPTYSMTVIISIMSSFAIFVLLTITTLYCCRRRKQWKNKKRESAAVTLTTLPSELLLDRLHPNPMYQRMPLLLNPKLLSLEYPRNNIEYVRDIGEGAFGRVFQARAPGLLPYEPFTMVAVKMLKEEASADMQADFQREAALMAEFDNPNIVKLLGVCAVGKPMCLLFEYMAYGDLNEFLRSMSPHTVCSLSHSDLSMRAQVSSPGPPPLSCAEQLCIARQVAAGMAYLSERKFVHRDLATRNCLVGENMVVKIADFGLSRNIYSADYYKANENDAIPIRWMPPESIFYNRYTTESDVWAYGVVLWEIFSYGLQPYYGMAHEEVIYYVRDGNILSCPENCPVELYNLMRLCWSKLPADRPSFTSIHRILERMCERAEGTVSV
In words: Inhibition of human MUSK at 500 nM by HotSpot assay relative to control.

Assay [3] addresses Tyrosine-protein kinase BTK (Homo sapiens) (UniProt Q06187). Description: Inhibition of human BTK at 500 nM by HotSpot assay relative to control.
Assay [4] addresses Mitogen-activated protein kinase kinase kinase 20 (Homo sapiens) (UniProt Q9NYL2). In words: Inhibition of human MLTK at 500 nM by HotSpot assay relative to control.
For assay [5], the target named is Dual specificity protein kinase CLK4 (Homo sapiens) (UniProt Q9HAZ1). Description: Inhibition of human CLK4 at 500 nM by HotSpot assay relative to control.
Chain of Dual specificity protein kinase CLK4 (Homo sapiens) (Q9HAZ1 whole entry, looked up): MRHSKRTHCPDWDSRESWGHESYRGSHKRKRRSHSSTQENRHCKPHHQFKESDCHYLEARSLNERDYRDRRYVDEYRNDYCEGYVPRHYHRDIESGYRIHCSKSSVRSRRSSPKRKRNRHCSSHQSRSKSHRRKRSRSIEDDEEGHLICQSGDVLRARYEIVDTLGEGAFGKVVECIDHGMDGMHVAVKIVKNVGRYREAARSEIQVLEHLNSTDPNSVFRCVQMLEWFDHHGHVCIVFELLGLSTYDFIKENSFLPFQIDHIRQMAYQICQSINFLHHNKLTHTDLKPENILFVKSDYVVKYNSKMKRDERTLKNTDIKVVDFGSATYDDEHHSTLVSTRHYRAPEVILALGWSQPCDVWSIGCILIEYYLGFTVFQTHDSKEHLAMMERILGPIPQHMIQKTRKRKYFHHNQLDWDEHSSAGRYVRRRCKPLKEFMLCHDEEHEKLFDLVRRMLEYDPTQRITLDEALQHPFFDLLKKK
Assay [6] addresses Ephrin type-A receptor 4 (Homo sapiens) (UniProt P54764). Description: Inhibition of human EPHA4 at 500 nM by HotSpot assay relative to control.
Assay [7] concerns the target Serine/threonine-protein kinase 33 (Homo sapiens) (UniProt Q9BYT3). In words: Inhibition of human STK33 at 500 nM by HotSpot assay relative to control.
The target in assay [8] is Serine/threonine-protein kinase MARK2 (Homo sapiens) (UniProt Q7KZI7). In words: Inhibition of human PAR-1Ba at 500 nM by HotSpot assay relative to control.
Chain of Serine/threonine-protein kinase MARK2 (Homo sapiens) (Q7KZI7 whole entry): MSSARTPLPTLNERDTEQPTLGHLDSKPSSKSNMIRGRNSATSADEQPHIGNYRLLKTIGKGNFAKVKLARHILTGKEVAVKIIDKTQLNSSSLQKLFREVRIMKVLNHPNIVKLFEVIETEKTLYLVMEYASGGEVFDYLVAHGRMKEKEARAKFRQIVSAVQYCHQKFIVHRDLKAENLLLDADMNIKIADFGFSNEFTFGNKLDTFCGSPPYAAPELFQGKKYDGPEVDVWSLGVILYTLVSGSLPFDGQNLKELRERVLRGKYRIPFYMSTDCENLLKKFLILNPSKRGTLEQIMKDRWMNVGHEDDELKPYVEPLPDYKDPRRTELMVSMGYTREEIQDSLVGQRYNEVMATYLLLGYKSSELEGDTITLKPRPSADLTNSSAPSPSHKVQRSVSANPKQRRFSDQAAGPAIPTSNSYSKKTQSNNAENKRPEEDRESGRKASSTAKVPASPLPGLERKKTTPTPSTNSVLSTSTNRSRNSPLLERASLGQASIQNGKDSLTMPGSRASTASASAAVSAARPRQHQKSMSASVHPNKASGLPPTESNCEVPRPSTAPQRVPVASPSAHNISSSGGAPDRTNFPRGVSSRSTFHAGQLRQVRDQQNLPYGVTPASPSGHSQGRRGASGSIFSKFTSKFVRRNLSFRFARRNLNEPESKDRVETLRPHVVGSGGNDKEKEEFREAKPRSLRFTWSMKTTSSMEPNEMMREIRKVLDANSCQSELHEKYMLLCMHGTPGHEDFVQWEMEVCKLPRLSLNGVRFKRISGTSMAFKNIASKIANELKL
Assay [9] addresses Tyrosine-protein kinase Fes/Fps (Homo sapiens) (UniProt P07332). Description: Inhibition of human FES at 500 nM by HotSpot assay relative to control.
For assay [10], the target named is T3, Dual specificity tyrosine-phosphorylation-regulated kinase 4 (Homo sapiens) (UniProt Q9NR20).
T3 sequence (whole entry): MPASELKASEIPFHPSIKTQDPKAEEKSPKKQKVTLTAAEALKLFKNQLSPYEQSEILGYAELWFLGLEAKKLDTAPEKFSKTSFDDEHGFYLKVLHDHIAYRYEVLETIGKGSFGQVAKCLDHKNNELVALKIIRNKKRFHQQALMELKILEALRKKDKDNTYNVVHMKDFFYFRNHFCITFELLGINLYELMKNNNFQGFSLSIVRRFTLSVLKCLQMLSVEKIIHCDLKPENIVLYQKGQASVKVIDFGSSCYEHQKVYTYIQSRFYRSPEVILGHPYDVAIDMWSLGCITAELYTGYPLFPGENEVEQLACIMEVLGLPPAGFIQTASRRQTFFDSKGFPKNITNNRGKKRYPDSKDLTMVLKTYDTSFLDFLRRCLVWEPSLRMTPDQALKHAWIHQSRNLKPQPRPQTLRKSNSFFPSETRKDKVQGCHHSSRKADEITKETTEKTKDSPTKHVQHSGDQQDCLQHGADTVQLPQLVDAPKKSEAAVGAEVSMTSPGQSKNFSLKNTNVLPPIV
Description: Inhibition of human DYRK4 at 500 nM by HotSpot assay relative to control.

Assay [11] has as its target Tyrosine-protein kinase Yes (Homo sapiens) (UniProt P07947). Description: Inhibition of human YES1 at 500 nM by HotSpot assay relative to control.

Chain of Tyrosine-protein kinase BTK (Homo sapiens) (Q06187 whole entry): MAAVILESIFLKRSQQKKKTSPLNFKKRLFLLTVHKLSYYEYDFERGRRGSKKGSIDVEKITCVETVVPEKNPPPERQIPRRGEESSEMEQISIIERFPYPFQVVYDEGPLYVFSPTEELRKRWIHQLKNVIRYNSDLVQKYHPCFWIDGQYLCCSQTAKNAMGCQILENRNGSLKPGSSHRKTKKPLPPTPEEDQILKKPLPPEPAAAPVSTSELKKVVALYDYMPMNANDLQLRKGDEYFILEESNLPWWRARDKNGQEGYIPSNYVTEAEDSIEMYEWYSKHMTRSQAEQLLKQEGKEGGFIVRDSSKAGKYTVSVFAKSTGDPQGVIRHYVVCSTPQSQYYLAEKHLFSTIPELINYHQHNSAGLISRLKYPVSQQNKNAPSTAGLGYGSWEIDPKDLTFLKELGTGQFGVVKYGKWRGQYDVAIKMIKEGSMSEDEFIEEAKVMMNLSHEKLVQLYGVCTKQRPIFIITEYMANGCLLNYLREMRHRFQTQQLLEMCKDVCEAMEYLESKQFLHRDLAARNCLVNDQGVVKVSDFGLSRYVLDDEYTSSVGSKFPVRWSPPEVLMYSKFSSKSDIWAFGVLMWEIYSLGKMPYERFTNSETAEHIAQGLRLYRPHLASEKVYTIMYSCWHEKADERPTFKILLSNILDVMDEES
Chain of Tyrosine-protein kinase Yes (Homo sapiens) (P07947 2-543 limits assumed): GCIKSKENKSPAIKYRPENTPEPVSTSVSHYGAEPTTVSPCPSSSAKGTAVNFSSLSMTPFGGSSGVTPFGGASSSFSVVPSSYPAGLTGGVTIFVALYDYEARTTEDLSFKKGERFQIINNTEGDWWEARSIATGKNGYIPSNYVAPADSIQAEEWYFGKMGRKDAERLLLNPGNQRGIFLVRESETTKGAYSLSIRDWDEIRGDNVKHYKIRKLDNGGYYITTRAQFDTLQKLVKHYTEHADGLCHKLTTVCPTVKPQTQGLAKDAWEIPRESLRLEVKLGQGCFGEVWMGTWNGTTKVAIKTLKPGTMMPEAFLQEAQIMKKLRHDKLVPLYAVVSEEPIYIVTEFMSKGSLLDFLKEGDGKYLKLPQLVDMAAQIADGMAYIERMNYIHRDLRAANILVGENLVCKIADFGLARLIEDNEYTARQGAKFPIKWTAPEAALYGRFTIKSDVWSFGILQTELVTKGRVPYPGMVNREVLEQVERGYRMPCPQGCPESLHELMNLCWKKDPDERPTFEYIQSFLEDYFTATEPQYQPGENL
Chain of Mitogen-activated protein kinase kinase kinase 20 (Homo sapiens) (Q9NYL2 2-800 limits assumed): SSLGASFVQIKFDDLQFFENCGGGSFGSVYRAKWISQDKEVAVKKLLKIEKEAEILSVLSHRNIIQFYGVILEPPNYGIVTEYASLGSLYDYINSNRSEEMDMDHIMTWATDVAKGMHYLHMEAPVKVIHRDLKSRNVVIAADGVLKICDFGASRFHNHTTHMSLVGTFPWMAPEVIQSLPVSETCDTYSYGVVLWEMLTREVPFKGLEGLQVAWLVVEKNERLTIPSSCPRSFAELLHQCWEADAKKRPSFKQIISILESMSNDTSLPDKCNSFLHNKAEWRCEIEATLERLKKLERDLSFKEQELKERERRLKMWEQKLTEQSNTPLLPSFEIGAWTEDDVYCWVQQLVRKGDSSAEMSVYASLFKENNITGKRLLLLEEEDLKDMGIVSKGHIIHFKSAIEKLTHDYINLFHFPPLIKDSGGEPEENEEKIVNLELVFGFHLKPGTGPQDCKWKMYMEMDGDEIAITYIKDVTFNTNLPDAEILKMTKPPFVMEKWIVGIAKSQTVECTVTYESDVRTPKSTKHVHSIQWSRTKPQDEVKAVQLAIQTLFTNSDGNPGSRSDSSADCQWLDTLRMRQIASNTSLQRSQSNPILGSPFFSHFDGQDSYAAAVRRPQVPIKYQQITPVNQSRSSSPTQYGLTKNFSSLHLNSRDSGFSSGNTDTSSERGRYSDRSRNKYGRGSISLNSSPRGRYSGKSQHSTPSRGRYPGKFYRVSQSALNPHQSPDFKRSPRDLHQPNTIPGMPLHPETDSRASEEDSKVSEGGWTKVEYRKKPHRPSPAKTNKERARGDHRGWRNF
Chain of Serine/threonine-protein kinase 33 (Homo sapiens) (Q9BYT3 whole entry, looked up): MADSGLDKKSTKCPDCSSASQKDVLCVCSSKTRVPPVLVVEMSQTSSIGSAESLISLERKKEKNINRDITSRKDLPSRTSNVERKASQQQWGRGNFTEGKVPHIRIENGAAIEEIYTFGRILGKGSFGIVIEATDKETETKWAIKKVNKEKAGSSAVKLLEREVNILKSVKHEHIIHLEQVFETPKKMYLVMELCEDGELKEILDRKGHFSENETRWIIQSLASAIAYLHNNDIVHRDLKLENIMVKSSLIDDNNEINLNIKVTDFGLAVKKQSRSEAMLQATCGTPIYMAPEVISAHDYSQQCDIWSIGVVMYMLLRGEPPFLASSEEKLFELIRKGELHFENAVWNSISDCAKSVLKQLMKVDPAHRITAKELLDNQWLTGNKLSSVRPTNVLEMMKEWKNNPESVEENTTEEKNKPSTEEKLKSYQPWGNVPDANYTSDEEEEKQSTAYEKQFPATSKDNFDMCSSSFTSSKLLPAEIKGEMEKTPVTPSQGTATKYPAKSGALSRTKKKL
Chain of Ephrin type-A receptor 4 (Homo sapiens) (P54764 whole entry): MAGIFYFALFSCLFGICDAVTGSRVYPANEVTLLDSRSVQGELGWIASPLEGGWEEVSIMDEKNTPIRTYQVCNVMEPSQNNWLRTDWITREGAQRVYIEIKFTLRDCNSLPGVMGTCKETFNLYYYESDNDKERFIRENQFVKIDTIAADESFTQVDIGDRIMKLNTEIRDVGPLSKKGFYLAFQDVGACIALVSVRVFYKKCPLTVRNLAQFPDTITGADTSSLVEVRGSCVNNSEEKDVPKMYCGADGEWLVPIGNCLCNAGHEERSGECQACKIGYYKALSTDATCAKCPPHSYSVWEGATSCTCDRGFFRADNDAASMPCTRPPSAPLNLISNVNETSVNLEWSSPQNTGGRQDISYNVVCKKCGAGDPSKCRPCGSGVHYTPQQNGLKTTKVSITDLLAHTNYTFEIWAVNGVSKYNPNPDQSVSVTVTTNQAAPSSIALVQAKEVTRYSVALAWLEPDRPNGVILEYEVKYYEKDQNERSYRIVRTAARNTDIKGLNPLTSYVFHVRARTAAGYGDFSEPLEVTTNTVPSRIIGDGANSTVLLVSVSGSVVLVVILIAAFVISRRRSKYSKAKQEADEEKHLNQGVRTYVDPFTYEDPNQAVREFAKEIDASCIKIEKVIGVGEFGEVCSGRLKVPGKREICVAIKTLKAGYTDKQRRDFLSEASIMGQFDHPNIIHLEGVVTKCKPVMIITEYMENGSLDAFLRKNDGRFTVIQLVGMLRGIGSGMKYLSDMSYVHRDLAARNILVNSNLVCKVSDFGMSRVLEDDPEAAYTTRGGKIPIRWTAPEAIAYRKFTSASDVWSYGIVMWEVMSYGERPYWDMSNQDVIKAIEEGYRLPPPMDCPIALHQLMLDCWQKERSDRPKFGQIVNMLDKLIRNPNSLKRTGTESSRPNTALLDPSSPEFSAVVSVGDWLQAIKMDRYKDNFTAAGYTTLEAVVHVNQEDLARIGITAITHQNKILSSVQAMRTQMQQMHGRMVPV

As a reminder, the inhibition is the drop in the measured response relative to a control, in per cent. For the molecule `Oc1n[nH]c2nnc(-c3c(-c4ccccc4)nn4ccccc34)cc12`, the inhibition in [1] is -2.05%; in [2], 3.28%; in [3] it was 9.23%; in assay [4] it was -0.11%; in assay [5] it was -0.68%; in assay [6], -8.13%. Moreover, the inhibition in assay [7] is -0.22%; in assay [8], -4.11%; in [9], 0.31%; in assay [10] it was 4.52%; in assay [11] it was 4.49%.

Turning to `Nc1n[nH]c2nnc(-c3c(-c4ccccc4)nn4ccccc34)cc12`, the inhibition in assay [1] was -0.31%; in assay [2], 3.22%; in assay [3], 6.42%; in [4] it was -1.29%; in assay [5], 5.12%; in assay [6], 14.1%. For the same molecule, the inhibition in [7] is -0.39%; in assay [8] it was -4.05%; in [9], 2.16%; in [10], 4.67%; in assay [11], 8.91%.
